Data taken from US12458614B2, “Therapeutic agents for improved mobility and cognitive function and for treating neurodegenerative diseases and lysosomal storage disorders” (priority 2017, dated 2025).
Values joined by “and” are separate entries in the source; they are usually repeats but may differ in a detail not shown here. Equal entries are not always repeated.

Tests used:
[1] = tested on: Npc1−/− mice; experiment: Weight data; assay type: in vivo, mouse; conditions: 0.1 g/kg from weaning
Excerpt: (§1) Separate groups of Npc1^−/− and Npc1^+/+ mice were left untreated, as controls. Animals were weighed twice a week. Weights were averaged (mean) across all mice in each group and compared.

[2] = tested on: wild-type (Npc1+/+) mice; experiment: Weight data; assay type: in vivo, mouse; conditions: 0.1 g/kg from weaning
Excerpt: as §1

[3] = tested on: Mucopolysaccharidosis Type IIIB (MPS IIIB) patient fibroblasts; experiment: Lysosomal volume via LysoTracker; assay type: cell-based, human; conditions: 1 mM, 6 days
[4] = tested on: Aspartylglucosaminuria patient fibroblasts; experiment: Lysosomal volume via LysoTracker; assay type: cell-based, human; conditions: 1 mM, 6 days
[5] = tested on: Sandhoff disease model, Hexb−/− mouse; experiment: Step cycle time; assay type: in vivo; conditions: Sandhoff mice, 12 weeks of age
Protocol: This study made use of a mouse model of Sandhoff disease, the Hexb^−/− mouse, as descrbed in Jeyakumar et al. (Jeyakumar, M. et al. (1999) Proc. Natl. Acad. Sci. USA 96: 6388-6393). Step cycle is the length of time taken during locomotion by a limb from the time it leaves the ground until it leaves the ground on the next occasion. Step cycle time was assessed at 12 weeks of age in untreated and acetyl-leucine treated Sandhoff model mice. Acetyl-leucine treatment constituted 0.1 g/kg body weight acetyl-leucine from 3 weeks of age.

[6] = tested on: patients with amyotrophic lateral sclerosis (ALS); experiment: Case studies, amyotrophic lateral sclerosis; assay type: in vivo, human
Excerpt: The results were documented by video.

[7] = tested on: amyloid precursor protein C-terminal fragments (APP-CTFs); experiment: APP-CTF levels relative to total APP in the cerebellum; assay type: in vivo, mouse; conditions: NPC1−/− mice, 0.1 g/kg body weight daily from 3 weeks, sacrificed at 8 weeks
Protocol: (§2) The Niemann-Pick Disease Type C (NPC) mouse model shares a number of pathological features with Alzheimer's disease (AD) as described herein. […] Mice were sacrificed at 8 weeks of age. Levels of amyloid precursor protein C-terminal fragments (APP-CTFs) were evaluated relative to total amyloid precursor protein (APP) levels in the cerebellum for wild type, untreated wild type NPC1^−/− mice, and AL-treated wild type NPC1^−/− mice. Levels of microtubule-associated protein 1A/1B-light chain 3-phosphatidylethanolamine conjugate (LC3-II) were also evaluated relative to levels of tubulin loading control for wild type, untreated wild type NPC1^−/− mice, and AL-treated wild type NPC1^−/− mice.

[8] = tested on: microtubule-associated protein 1A/1B-light chain 3-phosphatidylethanolamine conjugate (LC3-II); experiment: LC3-II levels relative to tubulin loading control; assay type: in vivo, mouse; conditions: NPC1−/− mice, 0.1 g/kg body weight daily from 3 weeks, sacrificed at 8 weeks
Protocol: as §2

[9] = tested on: person with postural imbalance and gait disorder; experiment: Case study Example 24; assay type: in vivo, human
Protocol: The patient was treated with Tanganil® 500 mg in 3 separate doses throughout the day—1 g upon waking, 1 g prior to lunch and 1 g prior to the evening meal for one week, followed by 2 g upon waking, 1.5 g prior to lunch and 1.5 g prior to the evening meal.

[10] = tested on: person with postural imbalance and cognitive decline; experiment: Case study Example 27; assay type: in vivo, human
Protocol: The patient was examined clinically by means of the following clinical assessments: maximal distance to walk; timed Up and Go test; Scale for the Assessment and Rating of Ataxia (SARA). The patient was also examined by means of posturography after 1 month of the therapy with Tanganil® 500 mg (2 g upon waking, 1.5 g prior to lunch and 1.5 g prior to the evening meal). Medication was taken 30 minutes prior to the meal, or at least 2 hours after the meal. During treatment with Tanganil® (2 g upon waking, 1.5 g prior to lunch and 1.5 g prior to the evening meal) for 1-month, the following assessments were made: […]

[11] = tested on: subjects with no apparent dysfunction in cognitive ability or movement/balance; experiment: Psychomotor Vigilance Task (Mind Metrics App); assay type: in vivo, human
Excerpt: For example, the Psychomotor Vigilance Task (PVT) is a sustained-attention, reaction-timed task that measures the speed with which subjects respond to a visual stimulus. The subject monitors a screen and presses the screen as quickly as possible upon the appearance of visual stimuli. The visual stimuli will then disappear and reappear (at irregular time intervals) e.g., 10 times over the course of the test, with the subject touching the screen as quickly as possible upon each reappearance. Test performance is quantified from an average of the e.g. 10 reaction times. The subject's reaction speed and alertness was assessed using the Mind Metrics App (Psychomotor Vigilance Task, 10 trials per test). The Psychomotor Vigilance Task (PVT) is a sustained-attention, reaction-timed task that measures the speed with which subjects respond to a visual stimulus. The subject is required to monitor a screen and press the screen as quickly as possible upon the appearance of visual stimuli. The visual stimuli will then disappear and reappear (at irregular time intervals) 10 times over the course of the test, with the subject touching the screen as quickly as possible upon each reappearance. Test performance is quantified from an average of the 10 reaction times. […] The subject was assessed for 2 weeks prior to taking acetyl-leucine, which constitutes the baseline period. […] Medication was taken at least 2 hours after and 30 minutes prior to eating. The 5 g daily dose was taken in 3 separate doses throughout the day—2 g upon waking, 1.5 g prior to lunch and 1.5 g prior to the evening meal. Daily treatments and assessments continued for 4 weeks. […]

[12] = tested on: patients with vertigo; conditions: clinical results reported by various authors; cited from earlier work
[13] = ALS Patient 1, after a further 20 days
[14] = ALS Patient 2, after approximately 2 months
[15] = one line per subject (age/gender 66 M, 29 M, 55 F, 50 M, 53 M, 48 F), listed as acetyl-leucine

Compound: CC(=O)NC(CC(C)C)C(=O)O (racemic) [acetyl-DL-leucine]
- Delay of weight loss symptoms compared to the untreated group [1]: two
- Effect on weight gain [2]: no significant effect
- LysoTracker fluorescence vs untreated disease fibroblasts [3]: statistically significant reduction in LysoTracker fluorescence toward control level
- LysoTracker fluorescence vs untreated disease fibroblasts [4]: trend in reducing LysoTracker fluorescence toward control level
- Average step cycle time ([5]; p<0.001 vs untreated): significantly faster average step cycle times
- Hind step cycle time ([5]; p<0.01 vs untreated): significantly faster hind step cycle times
- Front step cycle time ([5]; p<0.05 vs untreated): significantly faster front step cycle times
- Overall symptoms ([6]; ALS Patient 1): improvement in symptoms
- Speech after stopping treatment ([6]; ALS Patient 1, about 7 days plus 1-2 additional weeks off treatment): deterioration of speech
- Speech (patient report) ([6]; ALS Patient 1, after 15 days, 3 then 5 gram per day): significant improvement of speech
- Paresis of right foot-dorsiflexors / foot drop [6, 13]: foot drop had improved dramatically
- Sleep (patient report) [6, 13]: improvement in sleep
- Speech (patient report) [6, 13]: further improvement of speech
- Symptomatology after resuming treatment ([6]; ALS Patient 1, second resumption): improved symptomatology, in particular speech
- Motor function of the left hand [6, 14]: progredient deterioration of the motor function of the left hand
- Swallowing functions [6, 14]: remained stable
- Walking (patient report) [6, 14]: discrete improvement of walking
- Symptomatology (patient report) ([6]; ALS Patient 3, after one month): did not report improvement of symptomatology
- Symptomatology after suspension ([6]; ALS Patient 4, 10 days after therapy was suspended): worsening of symptomatology
- Symptomatology (patient report) ([6]; ALS Patient 4, after about one month): subjective improvement of dysphagia and less hypersalivation
- APP-CTF levels relative to total APP, cerebellum [7]: lowering of APP-CTFs
- LC3-II levels relative to tubulin [8]: lowering of LC3-II
- Tolerability ([9]; 3 g/day one week then 5 g/day): well tolerated
- Dizziness, imbalance, gait (feedback by spouse) ([9]; 22 days after beginning treatment): significant reduction of dizziness and imbalance, and significant improvement of gait
- Subjective measurements ([10]; 1 month on medication): more energy, was more agile and interactive
- SARA ([10]; 1 month on medication, baseline 6.5/40): 2/40
- Mean timed 8-meter-walking test ([10]; 1 month on medication, baseline 6.5 sec): 4.4 s
- Stance up-and-go test ([10]; 1 month on medication, baseline 25.4 sec): 21.2 s
- Maximal distance to walk ([10]; 1 month, 2 g/1.5 g/1.5 g per day, baseline 1 km): 1.5 km
- Side effects ([10]; 2 g/1.5 g/1.5 g per day dosage regimen): Sleepiness
- Frequency of falls ([10]; lower dosage 1 g/1 g/1 g for over 4 months): 0-1 /month
- Falls ([10]; therapy period of 1 month): did not record any falls
- % change in Reaction Time ([11]; on-treatment vs baseline, one line per subject (66 M, 29 M, 55 F, 50 M, 53 M, 48 F), listed as acetyl-leucine): −3.593% and 1.408% and 8.13% and −10.24% and −7.474% and −30.86%
- Details on Subjective Improvement ([11]; one line per subject): Improvement in general
- Statistically significant improvement in PVT performance on treatment? [11, 15]: Yes (4×) and No (2×)
- Subjective Improvement on treatment? [11, 15]: Yes (5×) and No
- Adverse effects ([11]; person five): None reported
- Subjective measurements ([11]; person five): feeling less tired than usual
- Adverse effects ([11]; person four): None reported
- Subjective measurements ([11]; person four): improvement in general alertness
- Adverse effects ([11]; person one): None reported
- Subjective measurements ([11]; person one): shortening of the time required to go from ‘asleep’ to ‘fully awake’
- Adverse effects ([11]; person six): None reported
- Subjective measurements ([11]; person six): no difference between on and off medication
- Subjective measurements ([11]; person three): improvement in general alertness
- Adverse events ([11]; person three, first week on medication, one occasion): mild dizziness/lightheadedness
- Adverse effects ([11]; person two): None reported
- Subjective measurements ([11]; person two): improvement in general alertness
- improvement in vertigo symptomology (share of cases) [12]: more than 95%
